Laboratory results: patent US20060008855A1, “Promiscuous G-protein compositions and their use” (Invitrogen Corporation, a Delaware corporation, priority 1996, published 2006)
Where “and” joins values, the source holds several entries; their conditions need not be identical. Identical values can stand only once.

Columns and labels:
β-lactamase = β-lactamase cleavage of CCF2 in phosphate buffer, emission spectrum; assay type: biochemical; details: 50 mmolar phosphate buffer pH 7.0, excitation 405 nm
From the text: The emission spectrum of compound CCF2 in 50 mmolar phosphate buffer pH 7.0 before and after β-lactamase cleavage of the β-lactam ring. In the intact substrate, efficient energy transfer occurs from the 7-hydroxycoumarin moiety to the fluorescein moiety. Excitation of the substrate at 405 nm results in fluorescence emission at 515 nm (green) from the acceptor dye fluorescein. The energy transfer is disrupted when β-lactamase cleaves the β-lactam ring, thereby severing the link between the two dyes. Excitation of the products at 405 nm now results entirely in donor fluorescence emission at 448 nm (blue). The fluorescence emission from the donor moiety increases 25 fold upon β-lactam cleavage. The fluorescence at 515 nm is reduced by 3.5-fold, all of the remaining fluorescence originating from the 7-hydroxycoumarin as its emission spectrum extends into the green. Twenty-five-fold quenching of the donor in the substrate is equivalent to an efficiency of fluorescence energy transfer of 96%. This large fluorescence change upon β-lactam cleavage can readily be used to detect β-lactamase in the cytoplasm of living mammalian cells.

RTEM β-lactamase [1] = target: T1, RTEM β-lactamase (Escherichia coli, UniProt P62593); assay: Pixel intensities of CCF2 loaded COS-7 cells transiently transfected with RTEM β-lactamase gene; assay type: cell-based; parameters: expressed in transfected cells; host or cells: COS-7, transiently transfected; details: for pixel intensity, coumarin emission filter: 450 DF 65 filter
T1 sequence (P62593 24-286 limits assumed): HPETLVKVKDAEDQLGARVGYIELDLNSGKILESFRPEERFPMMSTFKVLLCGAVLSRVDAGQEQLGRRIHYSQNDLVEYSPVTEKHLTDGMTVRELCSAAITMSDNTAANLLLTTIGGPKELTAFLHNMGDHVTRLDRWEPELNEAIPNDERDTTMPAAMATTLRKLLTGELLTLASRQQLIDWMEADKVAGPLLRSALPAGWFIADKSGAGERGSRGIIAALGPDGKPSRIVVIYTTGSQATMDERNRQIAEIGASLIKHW
Method: (§1) Cells from cell lines of various mammalian origin were transiently transfected with a plasmid containing the RTEM β-lactamase gene under the control of a mammalian promoter. […] D. 1.10 to 48 hours after transfection cells were exposed to 5 micromolar CCF2/ac2AM2 for 1 to 6 hours. […] To quantitate the fluorescence measurements the cells were first viewed through coumarin (450 DF 65) and then fluorescein (515 EFLP) emission filters and pictures were recorded with a charge couple device camera. The average pixel intensities of CCF2 loaded transfected cells (blue) and controls (green) at coumarin and fluorescein wavelength in COS-7 (Table 2) and CHO (Table 3) cells are summarized; values for 4 representative cells for each population are given.

RTEM β-lactamase [2] = target: T1, RTEM β-lactamase; assay: Pixel intensities of CCF2 loaded CHO cells transiently transfected with RTEM β-lactamase gene; assay type: cell-based; parameters: expressed in transfected cells; host or cells: CHO, transiently transfected; details: for pixel intensity, coumarin emission filter: 450 DF 65 filter
Method: as §1

NFAT promoter = NFAT promoter β-lactamase reporter gene assay in Jurkat T lymphocytes; assay type: cell-based
From the text: These examples employ Jurkat T lymphocytes that were transfected with a genetic construct that expresses a reporter gene. The genetic construct includes a NFAT promoter, which is responsive to increased calcium levels and protein kinase C activation that result from activation of Gα protein. The NFAT promoter was operably linked to a β-lactamase reporter gene. To detect expression of the reporter gene, and thereby detect activation of Gα, the cells were contacted with the β-lactamase substrate CCF2ac2/AM2 (described herein), and fluorescence emission was detected according to previously described methods (Tsien et al., 1993, Trends in Cell Biology 3:242-245).
Two different compounds, ionomycin and phorbol myristate acetate (PMA), were used to optimize detection of expression of the reporter gene in these examples. In the first example, the dose response to ionomycin was measured. In this example, a set of samples of cells were contacted with PMA (at 3 nM) and the calcium ionophore ionomycin (at various concentrations, ranging from 0 to 3.0 μM). […]
In practicing these methods, it is preferable to add the ionophore to a level that is just below the threshold level for activation of the calcium-responsive promoter (e.g., the NFAT promoter). […] As is illustrated in FIG. 4A, fluorescence emission from a sample of the aforementioned cells can be measured by FRET. In this example, fluorescence emission was measured approximately 90 minutes after stimulation. Because the fluorogenic β-lactamase substrate undergoes a shift in fluorescence emission, fluorescence emission is measured as an emission ratio (450/530) when exciting at 400 nm. […]
In a second example, the dose response of PMA required to stimulate NFAT-driven expression was measured. […] As above, fluorescence emission was measured 90 minutes after stimulation. […]

Gα15 or Gα16 expression = assay: Doxycyclin-inducible expression of Gα15 or Gα16 in COS-7 cells, Western blot; assay type: cell-based; details: COS-7 clones, tet operator/CMV promoter; doxycyclin 3 g/ml
From the text: The data summarized herein indicate that, although cells may not tolerate constitutive expression of promiscuous Gα proteins at high levels, they can tolerate expression of promiscuous Gα proteins from an inducible promoter. In this case, the genes for Gα15 and Gα16 were placed under the control of a cytomegalovirus (CMV) promoter that was operably linked to a heptamerized tet operator (Gossen and Bujard, 1992, Proc. Natl. Acad. Sci. 89:5547-5551). The plasmid encoding Gα and; the plasmid encoding Gα16 are identical, except sequences encoding Gα16 in lieu of Gα15. These plasmids were used to transfect COS-7 cells. These cells were co-transfected with a tetracyclin-dependent transactivator, rtTA, that is operably linked to a CMV promoter of a plasmid that carries a neomycin resistance gene (Gossen et al., 1995, Science 268:1766-1769).
Expression of the Gα genes was induced by contacting the cells with doxycyclin, a tetracyclin analog. In these experiments, the doxycyclin concentration was […], although doxycyclin concentrations ranging from […] can be used in order to regulate the level of gene expression. […] FIG. 3 illustrates that, in the presence of doxycyclin, expression of Gα15 or Gα16 is detectable as a band of approximately 43 kDa. […]

## O=C(CNC(=O)c1cc2cc(Cl)c(O)cc2oc1=O)N[C@@H]1C(=O)N2C(C(=O)O)=C(CSc3ccc4c(c3)C(=O)OC43c4ccc(O)cc4Oc4cc(O)ccc43)CS[C@H]12 [CCF2]
β-lactamase
  reduction of fluorescence at 515 nm upon β-lactam cleavage: 3.5 fold
β-lactamase; emission 448 nm
  increase of fluorescence emission from the donor moiety upon β-lactam cleavage: 25 fold
RTEM β-lactamase [1]; COS-7, blue cell (transfected)
  pixel intensity, coumarin emission filter: 22 and 27 and 34 and 31
RTEM β-lactamase [1]; COS-7, blue cell (transfected), 515 EFLP filter
  pixel intensity, Fluorescein emission filter: 33 and 20 and 23 and 31
RTEM β-lactamase [1]; COS-7, green cell (control)
  pixel intensity, coumarin emission filter: 4 and 5 and 3
RTEM β-lactamase [2]; blue cell (transfected)
  pixel intensity, coumarin emission filter: 98 and 70 and 76 and 56
RTEM β-lactamase [2]; blue cell (transfected), 515 EFLP filter
  pixel intensity, Fluorescein emission filter: 112 and 113 and 92 and 67
RTEM β-lactamase [2]; green cell (control)
  pixel intensity, coumarin emission filter: 9 and 7

## CCCCCCCCCCCCCC(=O)O[C@@H]1[C@@H](C)[C@@]2(O)[C@@H](C=C(CO)C[C@]3(O)C(=O)C(C)=C[C@@H]23)[C@@H]2C(C)(C)[C@]12OC(C)=O [PMA, phorbol myristate acetate]
NFAT promoter; 0 to 30 nM with 1 μM ionomycin, 90 minutes after stimulation
  effect on fluorescence emission from the cell sample: increased fluorescence emission
NFAT promoter; with 1 μM ionomycin, 90 minutes after stimulation
  concentration preferable for enhancing detection of expression of a reporter gene: approximately 3 nM

## C[C@H]1c2cccc(O)c2C(O)=C2C(=O)[C@]3(O)C(O)=C(C(N)=O)C(=O)[C@@H](N(C)C)[C@@H]3[C@@H](O)[C@@H]21 [doxycyclin]
Gα15 or Gα16 expression
  Gα proteins produced upon induction of gene expression: Up to 10,000 Gα proteins/cell

## C[C@H](CCC(=O)O)C[C@H](C)C[C@H](C)C(=O)/C=C(\O)[C@H](C)C[C@H](C)C/C=C/[C@@H](C)[C@@H](O)[C@@H](C)[C@@H](O)C[C@@H]1CC[C@@](C)([C@H]2CC[C@@](C)([C@@H](C)O)O2)O1 [ionomycin]
NFAT promoter; with PMA at 3 nM, emission ratio 450/530, about 90 minutes after stimulation
  concentration raising intracellular calcium to just below the threshold level for activation of the calcium-responsive promoter: approximately 0.3 μM
